Measurements: ChEMBL document CHEMBL4477215, “Specific Correction of Alternative Survival Motor Neuron 2 Splicing by Small Molecules: Discovery of a Potential Novel Medicine To Treat Spinal Muscular Atrophy” (J Med Chem, 2016)
Active and inactive are the calls of the source. The rule behind the calls is not given here.

What was measured:
Mus musculus [1] = assay: Increase in body weight of delta7 mouse harboring FVB.Cg-Tg(SMN2 delta7)4299Ahmb Tg(SMN2)89Ahmb Smn1tm1Msd/J assessed as mouse body weight beyond PND60 at 3 to 10 mg/kg, ip qd administered from PND3 to PND23 followed by 3 to 10 mg/kg/day via oral gavage from PND24 to PND65; format: functional, organism-based
[2] = Unbound AUC in plasma of wild type mouse at 3 mg/kg, ip measured on postnatal day 10; format: ADME, organism-based; conditions: in vivo
Mus musculus [3] = assay: Increase in body weight of delta7 mouse harboring FVB.Cg-Tg(SMN2 delta7)4299Ahmb Tg(SMN2)89Ahmb Smn1tm1Msd/J assessed as mouse body weight beyond PND50 at 1 to 3 mg/kg, ip qd administered from PND3 to PND23 followed by 1 to 3 mg/kg/day via oral gavage from PND24 to PND65; format: functional, organism-based
Mus musculus [4] = assay: (§1) Inhibition of mRNA splicing of SMN2 exon 7 in neonatal delta7 mouse harboring FVB.Cg-Tg(SMN2 delta7)4299Ahmb Tg(SMN2)-89Ahmb Smn1tm1Msd/J assessed as increase in SMN protein level in quadriceps at 3 mg/kg, ip qd administered from postnatal day 3 to postnatal day 9 measured 1 hr after last dose by HTRF assay relative to control; format: functional; parameters: scale not given: the % may be the effect or the level left
[5] = AUC in plasma of wild type mouse at 3 mg/kg, ip measured on postnatal day 10; format: ADME, organism-based
Mus musculus [6] = assay: Increase in survival of ip dosed delta7 mouse harboring FVB.Cg-Tg(SMN2 delta7)4299Ahmb Tg(SMN2)89Ahmb Smn1tm1Msd/J administered intraperitoneally once daily from PND3 to PND23 followed by oral gavage dosing qd from PND24 to PND65; format: functional, organism-based
Mus musculus [7] = assay: as §1, with “brain” for “quadriceps”; format: functional; parameters: scale not given: the % may be the effect or the level left
Mus musculus [8] = assay: Inhibition of mRNA splicing of SMN2 exon 7 in C/C-allele mouse harboring FVB.129(B6) Smn1tm5(Smn1/SMN2)Mrph/J assessed as increase in SMN protein level in brain at 1 mg/kg, po qd for 10 days measured 1 hr after 10th dose by HTRF assay relative to control; format: functional; parameters: scale not given: the % may be the effect or the level left
Mus musculus [9] = assay: Increase in survival of delta7 mouse harboring FVB.Cg-Tg(SMN2 delta7)4299Ahmb Tg(SMN2)89Ahmb Smn1tm1Msd/J assessed as mouse survival beyond PND50 at 1 to 3 mg/kg, ip qd administered from PND3 to PND23 followed by 1 to 3 mg/kg/day via oral gavage from PND24 to PND65; format: functional
Mus musculus [10] = assay: Increase in survival of delta7 mouse harboring FVB.Cg-Tg(SMN2 delta7)4299Ahmb Tg(SMN2)89Ahmb Smn1tm1Msd/J assessed as mouse survival beyond PND60 at 3 to 10 mg/kg, ip qd administered from PND3 to PND23 followed by 3 to 10 mg/kg/day via oral gavage from PND24 to PND65; format: functional
Mus musculus [11] = assay: as §1, with “in brain” for “in quadriceps”, “at 0.1” for “at 3”; format: functional; parameters: scale not given: the % may be the effect or the level left
[12] = Unbound AUC in plasma of wild type mouse at 1 mg/kg, ip measured on postnatal day 10; format: ADME, organism-based; conditions: in vivo
Mus musculus [13] = assay: Increase in body weight of delta7 mouse harboring FVB.Cg-Tg(SMN2 delta7)4299Ahmb Tg(SMN2)89Ahmb Smn1tm1Msd/J at 0.03 to 0.1 mg/kg, ip qd administered from PND3 to PND23 followed by 0.03 to 0.1 mg/kg/day via oral gavage from PND24 to PND65; format: functional, organism-based
Mus musculus [14] = assay: Increase in survival of delta7 mouse harboring FVB.Cg-Tg(SMN2 delta7)4299Ahmb Tg(SMN2)89Ahmb Smn1tm1Msd/J at 0.03 to 0.1 mg/kg, ip qd administered from PND3 to PND23 followed by 0.03 to 0.1 mg/kg/day via oral gavage from PND24 to PND65; format: functional, organism-based
Mus musculus [15] = assay: as §1, with “at 0.1” for “at 3”; format: functional; parameters: scale not given: the % may be the effect or the level left
[16] = AUC in plasma of wild type mouse at 1 mg/kg, ip measured on postnatal day 10; format: ADME, organism-based
Homo sapiens [17] = species on record: Homo sapiens; assay: Inhibition of mRNA splicing of SMN2 exon 7 in spinal motor neurons derived from human SMA type 1/2 patient induced pluripotent stem cells assessed as increase in SMN protein level at 0.01 to 1 uM by HTRF assay; parameters: scale not given: the % may be the effect or the level left
Mus musculus [18] = assay: Inhibition of mRNA splicing of human SMN2 exon 7 in transgenic SMA C/C-allele mouse brain administered orally qd for 10 days; format: functional, organism-based
Homo sapiens [19] = species on record: Homo sapiens; assay: Inhibition of mRNA splicing of SMN2 exon 7 in fibroblasts derived from human SMA type 1 patient assessed as increase in SMN protein level at 0.01 to 10 uM by HTRF assay
Mus musculus [20] = assay: Inhibition of mRNA splicing of human SMN2 exon 7 in transgenic SMA C/C-allele mouse brain assessed as increase in SMN protein level administered orally qd for 10 days; format: functional, organism-based

## Cc1cn2cc(-c3cc(=O)n4cc(N5CCN(C)CC5)ccc4n3)cc(C)c2n1
Mus musculus [1]
  Activity: Active
[2]
  fAUC: 208 ng·h/mL
Mus musculus [3]
  Activity: Active
Mus musculus [4]
  Activity: 130%
[5]
  AUC: 1300 ng·h/mL
Mus musculus [6]
  Activity: Dose-dependent effect
Mus musculus [7]
  Activity: 162%
Mus musculus [8]
  Activity: 0%
Mus musculus [9]
  Survival: 80 - 90%
Mus musculus [10]
  Survival: 80 - 90%

## Cc1cn2cc(-c3cc(=O)n4cc(N5CCN(C)CC5)ccc4n3)cc(F)c2n1
Mus musculus [11]
  Activity: 72%
[12]
  fAUC: 721 ng·h/mL
Mus musculus [13]
  Activity: Active
Mus musculus [14]
  Activity: Active
Mus musculus [8]
  Activity: 42%
Mus musculus [15]
  Activity: 107%
[16]
  AUC: 4300 ng·h/mL

## CCc1nc(C)cn2nc(-c3cc(=O)n4cc(C5CCN(C)CC5)cc(C)c4n3)cc12
Homo sapiens [17]
  Activity: 60 to 80%
Mus musculus [18]
  inhibition: Dose-dependent effect
Mus musculus [1]
  Activity: Active
[2]
  fAUC: 118 ng·h/mL
Homo sapiens [19]
  inhibition: Active
Mus musculus [3]
  Activity: Active
Mus musculus [20]
  inhibition: Dose-dependent effect
Mus musculus [4]
  Activity: 160%
[5]
  AUC: 5900 ng·h/mL
Mus musculus [6]
  Activity: Dose-dependent effect
Mus musculus [7]
  Activity: 135%
Mus musculus [8]
  Activity: 7%
Mus musculus [9]
  Survival: 80 - 90%
Mus musculus [10]
  Survival: 80 - 90%
